The structures appear in SMILES notation. pEC50, pIC50: −log10 of the molar value. Entries after “also recorded” stand apart in the source; their conditions may differ.

In one data set the test system is U937 cells. Nature of the data set: Anti-proliferative activity, U937. The data set is classed as cell-based. As to conditions: Homo sapiens, U-937; AML-FLT3-negative; supplement values ± SEM; read-out: U937 EC50.
In data set [1] the test system is AURKA phosphorylation (pAURKA at residue T288). Briefly: Western blot, AURKA phosphorylation in MV4-11 cells. Format: cell-based, human. As to conditions: nocodazole 16 h then drug 2.0 h. The procedure:
(§1) In order to understand the mode of action of BPR1K871, mechanistic studies in MV4-11 cell line using western blot analysis was carried out. MV4-11 cells were incubated with BPR1K871 in a dose-dependent manner for 2.0 h. Cell lysates were prepared and analyzed by immunoblotting for both FLT3 phosphorylation (pFLT3 at residue Y591) and AURKA phosphorylation (pAURKA at residue T288).
(§2) Western blot analysis was conducted as previously described. Primary antibodies against phospho-FLT3 (Tyr591) (#3461) and phospho-AURKA (Thr288) (#3079) were purchased from Cell Signaling Technology. The anti-FLT3 antibody (sc-480) and anti-AURKA antibody (07–648) were purchased from Santa Cruz Biotechnology and Upstate, respectively. The anti-β-actin rabbit polyclonal antibody (GTX110564) was purchased from GeneTex (CA, USA). The secondary antibodies horseradish peroxidase (HRP)-linked goat anti-rabbit IgG (111-035-003) were purchased from Jackson Immuno (West Grove, PA, USA). MV4-11 cells were incubated with compound BPR1K871 for 2.0 h at the indicated concentrations. Cell lysates were prepared and analyzed by immunoblotting. For AURKA analysis, the cell lysates were obtained from MV4-11 cells incubated for 16 h with 40 ngmL^-1 nocodazole, followed by drug treatment for 2.0 h at the indicated concentrations.

Another data set concerns the target CYP 2C9 (Homo sapiens, UniProt P11712). Briefly: CYP inhibition assay, CYP 2C9. The data set is classed as in vitro ADME.
In another data set the test system is MV4-11 tumor xenograft. Briefly: MV4-11 subcutaneous xenograft model. Format: in vivo. The note with it: nude mice, iv 1, 3 or 10 mg/kg days 1–5 and 8–12; hydrochloride salt; p < 0.05. The method, then:
Based on the potent in vitro anti-proliferative activity of BPR1K871, it was planned to investigate the in vivo efficacy. […] Subsequently, based on the PK study, we evaluated the acute toxicity of BPR1K871 in ICR mice (n = 3) by iv administration. […] Next, the antitumor activity of BPR1K871 was evaluated through IV route in MOLM-13 and MV4-11 xenograft models (Figure 5). For this, nude mice were inoculated subcutaneously with MOLM-13 and MV4-11 cells in the left flank. […] For MOLM-13 model, BPR1K871 was injected intravenously at 10 mg/kg daily for 5 days (on days 1–5); also BPR1K871 was intravenously administrated at 3 and 1 mg/kg once a day for two continuous weeks (on days 1–5 and 8–12). For MV4-11 model, BPR1K871 was intravenously administrated at 10, 3 and 1 mg/kg once a day for two continuous weeks (on days 1–5 and 8–12).

A further data set has as its system RS4-11 cells. Briefly: Anti-proliferative activity, RS4-11. The data set is classed as cell-based. The note with it: Homo sapiens, RS4-11; ALL-wt-FLT3 (homozygous); supplement values ± SEM; read-out: RS4-11 EC50.
A short description of data set [2]: In vivo pharmacokinetics evaluation in rats. More on the design: species or system Male Sprague-Dawley rats. As to conditions: rat. The method, then:
This study was approved by Institutional Animal Care and Use Committee of National Health Research Institutes. A solution of test compound (10 mg/mL) was prepared by dissolving appropriate amount of compound in a mixture of DMA/PEG400 (20/80, v/v). Male Sprague-Dawley rats, weighing 250–350 g each (8–10 weeks old), were obtained from BioLASCO, Ilan, Taiwan. […] The volume of dosing solution administered was adjusted according to the body weight recorded before dose administration. At 0 (prior to dosing), 2, 5, 15, and 30 min and at 1, 2, 4, 6, 8, and 24 h after dosing, a blood sample (∼150 μL) was collected from each animal via the jugular-vein cannula and stored in ice (0–4°C). Plasma was separated from the blood by centrifugation (14000 g for 15 min at 4°C in a Beckman model AllegraTM 6R centrifuge) and stored in a freezer (–60°C). All samples were analyzed for the test compound by LC-MS/MS (ABI3000). Data were acquired via multiple reactions monitoring. Plasma concentration data were analyzed with standard noncompartmental method with WinNonLin software program (version 1.1, Pharsight Corporation, CA).

The next data set addresses AURKB (Homo sapiens, UniProt Q96GD4). Nature of the data set: AURKB inhibition assay (Kinase-Glo). Format: biochemical. Also on record: full length His-tagged Aurora-B (residues M1∼A344); His; purchased Invitrogen PV6130. As to conditions: mean of at least two independent experiments. The method, then:
AURKB assay was conducted as previously described. Briefly, the recombinant full length His-tagged Aurora-B (residues M1∼A344) was purchased from Invitrogen (Catalog number: PV6130). The kinase assay was carried out in 96-well plates with the tested compound in reaction solution (50 mM Tris-HCl pH 7.4, 10 mM NaCl, 10 mM MgCl2, 0.01% BSA, 5 mM ATP, 1 mM DTT and 15 mM tetra(LRRASLG) peptide, and 40 ng recombinant Aurora-B) at 30°C for 180 min.
Following incubation, 50 μL Kinase-Glo Plus Reagent (Promega, Madison, WI, USA) was added, and the mixture was incubated at 25°C for 20 min. A 70 μL aliquot of each reaction mixture was transferred to a black microliter plate, and luminescence was measured on a Wallac Vector 1420 multilabel counter (PerkinElmer, Shelton, CT, USA).
(Kinase-Glo measures the ATP left after a reaction by luminescence.)

The subject of data set [3] is FLT3 phosphorylation (pFLT3 at residue Y591). Nature of the data set: Western blot, FLT3 phosphorylation in MV4-11 cells. The data set is classed as cell-based, human. As to conditions: 2.0 h. The method, then:
as §1, §2
On the technique in general: A western blot detects proteins with antibodies after separation by electrophoresis.

Another data set concerns the target CYP 2D6 (Homo sapiens, UniProt P10635). Nature of the data set: CYP inhibition assay, CYP 2D6. Format: in vitro ADME.
Where [4] appears, read: male, Sprague-Dawley, plasma, iv, 5 mg/kg.

Chain of CYP 2C9 (P11712 whole entry): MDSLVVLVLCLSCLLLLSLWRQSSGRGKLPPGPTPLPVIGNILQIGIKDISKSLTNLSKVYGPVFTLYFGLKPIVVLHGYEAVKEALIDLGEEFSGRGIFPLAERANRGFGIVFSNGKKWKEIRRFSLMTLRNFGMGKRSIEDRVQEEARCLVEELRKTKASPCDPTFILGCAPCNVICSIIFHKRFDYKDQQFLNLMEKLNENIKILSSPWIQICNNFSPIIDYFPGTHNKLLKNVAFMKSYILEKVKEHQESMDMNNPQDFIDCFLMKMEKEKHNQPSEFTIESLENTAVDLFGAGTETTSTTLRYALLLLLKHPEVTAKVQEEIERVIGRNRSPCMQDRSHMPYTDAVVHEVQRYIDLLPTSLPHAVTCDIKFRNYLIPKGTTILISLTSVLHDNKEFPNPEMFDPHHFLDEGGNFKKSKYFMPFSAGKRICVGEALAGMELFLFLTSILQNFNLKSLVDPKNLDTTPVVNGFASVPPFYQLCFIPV
Chain of AURKB (Q96GD4 whole entry): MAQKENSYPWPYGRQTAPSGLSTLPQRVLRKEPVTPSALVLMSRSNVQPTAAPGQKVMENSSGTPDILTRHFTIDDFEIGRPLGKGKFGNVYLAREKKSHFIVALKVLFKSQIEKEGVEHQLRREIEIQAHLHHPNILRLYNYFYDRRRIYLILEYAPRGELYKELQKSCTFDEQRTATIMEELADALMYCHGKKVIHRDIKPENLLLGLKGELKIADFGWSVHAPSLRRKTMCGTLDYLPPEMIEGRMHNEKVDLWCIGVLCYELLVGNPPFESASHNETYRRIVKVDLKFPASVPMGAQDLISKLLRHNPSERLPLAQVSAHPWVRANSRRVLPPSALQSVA
Chain of CYP 2D6 (P10635 whole entry): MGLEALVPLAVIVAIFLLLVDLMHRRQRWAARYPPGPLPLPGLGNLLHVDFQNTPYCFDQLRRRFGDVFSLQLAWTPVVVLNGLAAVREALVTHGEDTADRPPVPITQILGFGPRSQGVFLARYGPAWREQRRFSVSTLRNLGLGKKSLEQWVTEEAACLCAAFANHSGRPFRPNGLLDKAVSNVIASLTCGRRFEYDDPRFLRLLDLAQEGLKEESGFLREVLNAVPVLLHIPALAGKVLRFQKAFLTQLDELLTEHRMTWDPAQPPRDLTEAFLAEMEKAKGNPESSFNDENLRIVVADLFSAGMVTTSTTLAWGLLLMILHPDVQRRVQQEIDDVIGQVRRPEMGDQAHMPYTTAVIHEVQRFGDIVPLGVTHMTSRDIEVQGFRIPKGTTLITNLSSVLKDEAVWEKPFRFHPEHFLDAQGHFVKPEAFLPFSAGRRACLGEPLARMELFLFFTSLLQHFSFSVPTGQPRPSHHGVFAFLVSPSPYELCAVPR

What is called pEC50 is the EC50 on a negative log10 scale, so that one unit is a factor of ten. The term pIC50 denotes −log10 of the IC50, conventionally taken in molar units. A higher pIC50 goes with a small IC50. A word on the AUC(0-inf): it is total exposure, with the tail of the curve extrapolated. A lower AUC(0-inf) goes with less exposure. Usually clearance stands for a measure of how efficiently the substance is removed, as volume per time. In general, half-life refers to the time needed for the level to fall by half in the phase considered. Read a low half-life as rapid decline. As for `CN(C)CCCOc1ccc2c(NCCc3cnc(NC(=O)Nc4cccc(Cl)c4)s3)ncnc2c1` [BPR1K871, 1-(3-Chlorophenyl)-3-(5-(2-((7-(3-(dimethylamino)propoxy)quinazolin-4-yl)amino)ethyl)thiazol-2-yl)urea], the negative logarithm of the EC50 (pEC50) with U937 cells is 5.09. In data set [1], the “concentration that completely inhibited formation of pAURKA (Thr288)” value is listed as 100 nM. Further, the negative logarithm of the IC50 (pIC50) against CYP 2C9 is less than 5.40. For the same compound, the “growth / volume of MV4-11 tumor xenograft vs vehicle” value in the data set with MV4-11 tumor xenograft is “significantly reduced; also recorded: inhibited”. Moreover, in the data set with RS4-11 cells, the negative logarithm of the EC50 (pEC50) was 7.96. In [2] (setting [4]), this compound gave a total exposure AUC(0-inf) of 1460 ng·h/mL, a clearance of 60.4 mL/min/kg and a half-life of 23.5 h. Further, in data set [2] (male, Sprague-Dawley, plasma, iv, 5 mg/kg, read-out: Vss), the Vd worked out at 34.2 L/kg. Also, the oral bioavailability entry in [2] is given as “without oral bioavailability”. Moreover, in data set [2] (po, 20 mg/kg), the “AUC (0-∞)” value is recorded as “not detectable”, the Cmax result is recorded as “not detectable”, the Tmax entry is “not detectable” and the t1/2 entry was “not detectable”. In addition, the pIC50 against AURKB was 7.89. Also, the “concentration that completely inhibited formation of pFLT3 (Tyr591)” value in data set [3] amounted to 2 nM. Besides, the pIC50 on CYP 2D6 is less than 5.40.
